Assay results: PubChem BioAssay (NCI)
Where “and” joins values, the source holds several entries; their conditions need not be identical. Identical values can stand only once.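 Cells were grown in 96-well plates and exposed to each compound for 48 hours at five concentrations; endpoints were interpolated linearly between bracketing concentrations, or set to the highest concentration if not reached. TGI marks complete inhibition of growth.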

Columns and labels:
Experiment in all cases: inhibition of tumour cell growth, NCI panel, 48 h
KM12 colon = tested on: KM12 colon
A498 renal = tested on: A498 renal
HS 578T breast = tested on: HS 578T breast
COLO 205 colon = tested on: COLO 205 colon
NCI-H23 lung = tested on: NCI-H23 lung
MDA-MB-231 breast = tested on: MDA-MB-231 breast
HCC-2998 colon = tested on: HCC-2998 colon

SMILES | TGI (KM12 colon) | TGI (A498 renal) | TGI (HS 578T breast) | TGI (COLO 205 colon) | TGI (NCI-H23 lung) | TGI (MDA-MB-231 breast) | TGI (HCC-2998 colon)
CCOC(=O)c1c[nH]c(C(=O)OCC)c1-c1cccn1-c1ccccc1 | 24.6 µM | 86.2 µM | 59 µM | 38.5 µM | > 100 µM | > 100 µM | –
COc1ccc(-n2c(CCC(=O)O)nc3c2C(=O)c2ccccc2C3=O)cc1 | > 100 µM | > 100 µM | > 100 µM | > 100 µM | > 100 µM | > 100 µM | > 100 µM
CC1(C)C2CCC3CC(CCC#N)CCC3C21C#N (stereo unspecified) | > 100 µM | > 100 µM | > 100 µM | > 100 µM | > 100 µM | > 100 µM | > 100 µM
CC(C)Oc1c(C2(c3ccccc3)SCCCS2)c(=O)c1=O | > 100 µM | > 100 µM | > 100 µM | > 100 µM | > 100 µM | > 100 µM | –
CCOC(=O)N/N=C(/N)c1cccc(Br)c1 | > 100 µM | – | > 100 µM | > 100 µM | > 100 µM | > 100 µM | > 100 µM
Cc1ccc(S(=O)c2cccs2)cc1 (stereo unspecified) | > 100 µM | > 100 µM | – | > 100 µM | > 100 µM | – | –
O=C1CCN2c3ccccc3[C@H]3Cc4cccc(c4[C@@H]2C3)CCO1 | > 100 µM | > 100 µM | – | > 100 µM | > 100 µM | > 100 µM | > 100 µM
CO/C(N)=C(\C#N)N=Cc1ccc2ccccc2c1 | > 100 µM | > 100 µM | > 100 µM | 51.8 µM | > 100 µM | > 100 µM | –
C=C1CC(C)(COc2ccc3c(C)c(Cl)c(=O)oc3c2)OC1=O (stereo unspecified) | 14.5 µM | – | > 100 µM | 2.43 µM | 4.2 µM | 12.6 µM | 4.27 µM
CCOC(=O)C(NC(=O)OCc1ccccc1)C(=O)O (stereo unspecified) | > 100 µM | > 100 µM | > 100 µM | > 100 µM | > 100 µM | > 100 µM | > 100 µM
O=C1NC2NC3NC(=O)NC3NC2N1 (stereo unspecified) | > 100 µM | > 100 µM | – | > 100 µM | > 100 µM | > 100 µM | –
C=CCCC1(O)C(O)C(CO)O[C@H](O[C@@]2(CO)OC(CO)C(O)C2O)C1O (stereo partly specified) | > 100 µM | – | – | > 100 µM | > 100 µM | > 100 µM | –
CC(C)(C)OC(=O)NC1CCCC1C(=O)C1=CCCC1 (stereo unspecified) | > 100 µM | > 100 µM | > 100 µM | > 100 µM | > 100 µM | > 100 µM | > 100 µM
CC1(C)CCN2C(=O)C34CCCC3CC21S4 (stereo unspecified) | > 100 µM | > 100 µM | > 100 µM | > 100 µM | > 100 µM | > 100 µM | –
COc1ccc(C2c3cc4c(cc3OC(NNc3ccccc3)C2C)OCO4)cc1 (stereo unspecified) | > 100 µM | 76.9 µM | > 100 µM | 20.5 µM | > 100 µM | > 100 µM | 4.79 µM
C#CC[C@@H]1C(=O)N(Cc2ccc(OC)cc2)[C@@H](C(C)C)C(=O)N1Cc1ccc(OC)cc1 | > 100 µM | > 100 µM | > 100 µM | 37 µM | > 100 µM | > 100 µM | > 100 µM
CCS(=O)C(=O)N(O)c1ccc(Cl)cc1 (stereo unspecified) | 47.2 µM | > 100 µM | > 100 µM | > 100 µM | – | > 100 µM | > 100 µM
CC(=O)OI1NC(=O)c2ccccc21 | > 100 µM | > 100 µM | > 100 µM | > 100 µM | > 100 µM | > 100 µM | –
CCC(NC(C)c1ccccc1)C(=O)c1ccc(OCc2ccccc2)c(OCc2ccccc2)c1 (stereo unspecified) | > 100 µM | – | > 100 µM | > 100 µM | > 100 µM | > 100 µM | > 100 µM
CCc1n[nH]c(=O)n1CCCCCCCCn1c(CC)n[nH]c1=O | > 100 µM | – | > 100 µM | > 100 µM | > 100 µM | > 100 µM | > 100 µM
CN(C)CCN(C)P12(Oc3ccccc3O1)Oc1c(Cl)c(Cl)c(Cl)c(Cl)c1O2 | – | > 100 µM | – | > 100 µM | > 100 µM | > 100 µM | > 100 µM
COC(=O)c1ccc2c(c1)CC1(C2)Cc2cc3c(cc2C1)CCC3 | – | > 100 µM | > 100 µM | – | > 100 µM | > 100 µM | > 100 µM
O[C@]12C=C(c3nccc4c3[nH]c3ccccc34)[C@@H]3CCN(CCCC/C=C\CC1)C[C@@]31CC3/C=C\CCCCN3[C@H]12 (stereo partly specified) | 1.3 µM | 2.83 µM | 2.9 µM | 1.13 µM | 2.53 µM | 1.84 µM | 0.936 µM

SMILES | TGI (KM12 colon) | TGI (A498 renal) | TGI (HS 578T breast) | TGI (COLO 205 colon) | TGI (NCI-H23 lung) | TGI (MDA-MB-231 breast) | TGI (HCC-2998 colon)
CC1=NN(c2nc(N)nc(NS(=O)(=O)c3cc(C)c(Cl)cc3S)n2)C(C)(C)C1 | > 10 µM | > 10 µM | > 10 µM | > 10 µM | > 10 µM | – | > 10 µM
CSc1nc(=S)[nH]c2c1c(C)nn2-c1ccccc1 | – | 80.6 µM | > 100 µM | 56.5 µM | 45.8 µM | 64.9 µM | > 100 µM
Nc1nc(NNc2cccc(F)c2)cc(=O)[nH]1 | 56.8 µM | > 100 µM | > 100 µM | 54.3 µM | > 100 µM | > 100 µM | > 100 µM
CC1(C)OP(=O)(c2ccccc2)C=C1Sc1ccc([N+](=O)[O-])cc1[N+](=O)[O-] (stereo unspecified) | > 100 µM | > 100 µM | > 100 µM | > 100 µM | > 100 µM | – | –
Cc1cccc(C2ON=C(c3ccccc3)N2C23CC4CC(CC(C4)C2)C3)c1 (stereo unspecified) | > 10 µM | > 10 µM | > 10 µM | > 10 µM | > 10 µM | > 10 µM | > 10 µM
CN(C)c1ccc(/C=C/C(=O)c2ccc(O)cc2)cc1 | > 100 µM | > 65.7 µM | > 69.7 µM | 26.6 µM | > 100 µM | > 91.5 µM | 38.1 µM
CSc1ncnc2c1cnn2Cc1cnnn1COCC(O)CO (stereo unspecified) | > 100 µM | > 100 µM | – | > 100 µM | > 100 µM | > 100 µM | > 100 µM
C1CNOCCCONCCCNOCCCONC1 | > 100 µM | > 100 µM | > 100 µM | > 100 µM | > 100 µM | 79.6 µM | –
C[C@]12C=CC(=O)C=C1CC[C@@H]1[C@@H]2CC[C@@]2(C)[C@H]1CC[C@]2(O)C(N)=O | > 100 µM | > 100 µM | > 100 µM | > 100 µM | > 100 µM | > 100 µM | > 100 µM
Clc1ccc(Nc2nnc(CNc3ccc(-c4nnc(Nc5ccc(Cl)cc5)s4)cc3)s2)cc1 | 36.6 µM | > 100 µM | – | 45.3 µM | > 100 µM | > 100 µM | 48.9 µM
O=[N+]([O-])c1ccc(SN=S=NSc2cccc(SN=S=NSc3ccc([N+](=O)[O-])cc3)c2)cc1 | > 100 µM | > 100 µM | > 100 µM | > 100 µM | – | – | > 100 µM
O=C(CNc1ccccn1)Nn1cnc2ccc(S(=O)(=O)Nc3ccccn3)cc2c1=O | > 100 µM | – | > 100 µM | > 100 µM | > 100 µM | > 100 µM | > 100 µM
O=C1Oc2ccccc2C1C/C(=N\Nc1ccccc1)c1ccccc1O (stereo unspecified) | 45.8 µM | > 100 µM | > 100 µM | 32.8 µM | 74 µM | > 100 µM | > 100 µM
O=c1[nH]nc(Cc2ccccc2)n1/N=C/c1cccs1 | > 100 µM | 63 µM | > 100 µM | > 100 µM | > 100 µM | > 100 µM | > 100 µM
CC1(C)OC(=O)C(C)(C)C(=O)O1 | > 100 µM | – | > 100 µM | > 100 µM | > 100 µM | > 100 µM | > 100 µM
COc1ccc(C(O)/C(=N/N)c2nc3ccc(Cl)cc3[nH]c2=O)cc1 (stereo unspecified) | > 100 µM | > 100 µM | > 100 µM | > 100 µM | > 100 µM | > 100 µM | > 100 µM
COc1ccc(Nc2nc3ccccc3n3cccc23)cc1OC | 29.1 µM | 55.8 µM | > 100 µM | 27.4 µM | 27.9 µM | 40.1 µM | 27.6 µM
C[C@@H](CC(O)C(O)C(C)(C)O)C1CCC23CC12CCC1[C@@]2(C)CCC(O)C(C)(C)C2CC(OC2OC(CO)C(O)C(O)C2O)[C@]13C (stereo partly specified) | > 10 µM | > 10 µM | > 10 µM | > 10 µM | > 10 µM | > 10 µM | > 10 µM
CC(C)[C@@H]1CC[C@@H](C)C[C@H]1OC(=O)c1c2n(c3ccccc13)C[C@H]1OC(C)(C)O[C@@H]21 | > 100 µM | – | 51.9 µM | > 100 µM | 48.9 µM | > 100 µM | > 100 µM
CC1=CC(=O)CC2(C)CCC(C(C)CC(=O)CC(C)C)CC12OO (stereo unspecified) | 33.2 µM and 29.4 µM | 31.5 µM and 49.4 µM | 88.3 µM and > 100 µM | 27.8 µM and 34.8 µM | 39.8 µM and 54.9 µM | 29.5 µM and 32.7 µM | –
O=C1CN(c2ccccc2)Cc2nc(Cl)ccc2N1 | > 100 µM | – | > 100 µM | > 100 µM | – | > 100 µM | > 100 µM
CCCCOCCOCCOC1=CC(=O)c2c(O)ccc(O)c2C1=O | 3.3 µM | – | 6.5 µM | 2.74 µM | 3.32 µM | 3.86 µM | 3.25 µM
